Consider 10 compounds from PubChem BioAssay (NCI).

SMILES strings stand for the structures.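 Tested at 5 concentrations; 48 h exposure; 96-well plates; endpoints linearly interpolated, else capped at highest concentration. The concentration for 50% growth inhibition is given as GI50. TGI: total growth inhibition.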

Test systems include CCRF-CEM leukemia; IGROV1 ovarian; SK-OV-3 ovarian; SW-620 colon; MDA-MB-231 breast; MCF7 breast; OVCAR-5 ovarian; T-47D breast.
Common to all, as to experiment: NCI anticancer screen, dose series, 48 h

Turning to `Nc1nc(Cl)nc2c1ncn2C1CCC(COP(=O)(O)OP(=O)(O)OP(=O)(O)O)O1` (configuration not stated), the TGI with CCRF-CEM leukemia, in the experiment on IGROV1 ovarian, in the experiment with SK-OV-3 ovarian, in the experiment with SW-620 colon, in the experiment on MDA-MB-231 breast and in the experiment with MCF7 breast was more than 100 µM each time. Further, the TGI in the experiment on OVCAR-5 ovarian is 93.3 µM; with T-47D breast, more than 100 µM.
With `CCCC(=O)Nc1ncnc2c1ncn2C1OC2COP(=O)(O)OC2C1OC(=O)CCC` (configuration not stated), the TGI in the experiment on CCRF-CEM leukemia, in the experiment on SK-OV-3 ovarian, in the experiment with SW-620 colon, in the experiment on MDA-MB-231 breast, in the experiment with MCF7 breast and in the experiment on OVCAR-5 ovarian was more than 1000 µM in each case. The compound further registered a TGI in the experiment on T-47D breast of more than 1000 µM. Moreover, the GI50 with IGROV1 ovarian, with SK-OV-3 ovarian, in the experiment on SW-620 colon, in the experiment with MCF7 breast, in the experiment with OVCAR-5 ovarian and in the experiment with T-47D breast was more than 1000 µM throughout.
For the compound `O=C(Nc1ccc(Cl)cc1F)c1cc(Cl)ccc1O`, the GI50 is 1.62 µM in the experiment on CCRF-CEM leukemia; 0.247 µM with IGROV1 ovarian; 0.576 µM with SK-OV-3 ovarian; 0.7 µM in the experiment on SW-620 colon; 0.554 µM in the experiment on MDA-MB-231 breast; 0.442 µM in the experiment on MCF7 breast. In addition, the GI50 in the experiment with OVCAR-5 ovarian was 2.74 µM; in the experiment on T-47D breast, 0.253 µM. Besides, the TGI in the experiment with CCRF-CEM leukemia was more than 44.9 µM; in the experiment on IGROV1 ovarian, more than 100 µM; in the experiment with SK-OV-3 ovarian, 8.6 µM; with SW-620 colon it was more than 22.5 µM; with MDA-MB-231 breast, 3.46 µM; in the experiment on MCF7 breast it was 10.2 µM. The compound also showed a TGI in the experiment on OVCAR-5 ovarian of more than 100 µM.
For the compound `O=C1C(Cl)=C(Nc2ccccn2)C(=O)c2ccccc21`, the GI50 in the experiment with CCRF-CEM leukemia is 3.79 µM; in the experiment on IGROV1 ovarian, 3.04 µM; in the experiment with SK-OV-3 ovarian, 13.9 µM; with SW-620 colon, 2.29 µM; in the experiment with MDA-MB-231 breast it was 3.23 µM; with MCF7 breast, 1.96 µM. Also, the GI50 in the experiment with OVCAR-5 ovarian was 7.42 µM; in the experiment on T-47D breast, 3.1 µM. The TGI with CCRF-CEM leukemia was 12.5 µM; in the experiment on IGROV1 ovarian it was 8.05 µM; in the experiment with SK-OV-3 ovarian, 26.9 µM; in the experiment with SW-620 colon, 5.16 µM; in the experiment on MDA-MB-231 breast, 16.6 µM; in the experiment on MCF7 breast it was 4.12 µM. The TGI with OVCAR-5 ovarian was 23.2 µM; in the experiment with T-47D breast it was 10.2 µM.
As to `O=C1CCCCCCCCCCC1CN(Cc1ccccc1)Cc1ccccc1` (configuration not stated), the TGI is 50.2 µM in the experiment with CCRF-CEM leukemia; more than 100 µM in the experiment on IGROV1 ovarian; more than 100 µM with SK-OV-3 ovarian; more than 100 µM in the experiment on SW-620 colon; more than 100 µM in the experiment with MDA-MB-231 breast; 68.1 µM in the experiment with MCF7 breast. Further, the TGI in the experiment with OVCAR-5 ovarian is more than 100 µM; with T-47D breast, 63.9 µM.
Regarding `COc1ccc(CCN2COc3ccc4ccc(=O)oc4c3C2)cc1OC`, the TGI in the experiment on CCRF-CEM leukemia is 54.8 µM; in the experiment on IGROV1 ovarian, more than 100 µM; with SK-OV-3 ovarian, more than 100 µM; with SW-620 colon it was 69 µM; with MDA-MB-231 breast, more than 100 µM; in the experiment with MCF7 breast, more than 100 µM. Also, the TGI in the experiment on OVCAR-5 ovarian and in the experiment with T-47D breast was more than 100 µM each time.
Consider `CS(=O)(=O)c1ccc(-c2[nH]c3ccc(F)cc3c2/C=N/NC(N)=S)cc1`, for which the GI50 in the experiment on CCRF-CEM leukemia is 0.366 µM; with IGROV1 ovarian it was 4.95 µM; in the experiment with SK-OV-3 ovarian, 1.86 µM; with SW-620 colon it was 0.575 µM; with MDA-MB-231 breast it was 1.65 µM; in the experiment on MCF7 breast, 2.1 µM. The GI50 in the experiment with OVCAR-5 ovarian is 3.74 µM; in the experiment on T-47D breast it was 12.3 µM. Moreover, the TGI in the experiment with CCRF-CEM leukemia is 27.2 µM; in the experiment on IGROV1 ovarian, more than 100 µM; with SK-OV-3 ovarian, more than 100 µM; in the experiment with SW-620 colon it was more than 100 µM; in the experiment on MDA-MB-231 breast it was more than 100 µM; in the experiment with MCF7 breast, 18.7 µM. In addition, the figures for the TGI in the experiment on OVCAR-5 ovarian and in the experiment on T-47D breast were more than 100 µM and 85 µM, respectively.
In the case of `Cc1nc2sc(C(=O)Nc3cccc(Cl)c3C)c(N)c2cc1C(=O)c1ccccc1`, the GI50 in the experiment with CCRF-CEM leukemia was 0.18 µM; in the experiment with IGROV1 ovarian, 0.419 µM; in the experiment with SK-OV-3 ovarian, 0.229 µM; with SW-620 colon, 0.209 µM; in the experiment with MDA-MB-231 breast it was 0.463 µM; in the experiment with MCF7 breast, 0.168 µM. The GI50 with OVCAR-5 ovarian was 1.26 µM; in the experiment with T-47D breast, 0.245 µM. The TGI with CCRF-CEM leukemia, in the experiment on IGROV1 ovarian, with SK-OV-3 ovarian, with SW-620 colon, in the experiment with MDA-MB-231 breast and in the experiment on MCF7 breast was more than 50 µM throughout. Moreover, the TGI in the experiment with OVCAR-5 ovarian and with T-47D breast was more than 50 µM each time.
On to `COc1ccc2c(c1)c(-c1nc(-c3cn(C)c4ncccc34)cs1)cn2CCCCN1CCOCC1`, for which the GI50 with CCRF-CEM leukemia was 1.02 µM; with IGROV1 ovarian, 2.66 µM; in the experiment on SK-OV-3 ovarian, 4.22 µM; in the experiment on SW-620 colon it was 0.745 µM; in the experiment on MDA-MB-231 breast it was 0.941 µM; in the experiment with MCF7 breast, 1.71 µM. Also, the values for the GI50 in the experiment with OVCAR-5 ovarian and with T-47D breast were 1.68 µM and 7.08 µM, respectively. In addition, the TGI with CCRF-CEM leukemia was 3.23 µM; with IGROV1 ovarian it was 10.4 µM; in the experiment on SK-OV-3 ovarian, 15.2 µM; in the experiment with SW-620 colon it was 1.92 µM; in the experiment on MDA-MB-231 breast it was 2.49 µM; with MCF7 breast it was 3.67 µM. The figures for the TGI with OVCAR-5 ovarian and in the experiment with T-47D breast were 4.03 µM and 29 µM, respectively.
As for `CC(=O)Nc1ccc(S(=O)(=O)c2ccc(NC(C)=O)cc2)cc1`, the GI50 in the experiment with CCRF-CEM leukemia, in the experiment on IGROV1 ovarian, with SK-OV-3 ovarian, with SW-620 colon, in the experiment with MDA-MB-231 breast and in the experiment on MCF7 breast was more than 100 µM each time. The GI50 in the experiment with OVCAR-5 ovarian and in the experiment on T-47D breast was more than 100 µM in each case. For the same compound, the TGI in the experiment with CCRF-CEM leukemia, in the experiment on IGROV1 ovarian, with SK-OV-3 ovarian, in the experiment with SW-620 colon, in the experiment on MDA-MB-231 breast and in the experiment on MCF7 breast was more than 100 µM in each case. Further, the TGI in the experiment on OVCAR-5 ovarian and in the experiment with T-47D breast was more than 100 µM throughout.
